Test results taken from patent publication US5116985A, “Isoquinoline derivatives and salts thereof” (priority 1989, dated 1992).
Structures can show the parent of a compound that is named as a salt.

Tests used:
trypsin [1] = biological target: T1, trypsin (Bos taurus, UniProt P00760); assay: Inhibition of trypsin hydrolysis of TAME (p-tosylarginine methyl ester), in vitro; type: biochemical; conditions: TAME substrate, 1.5 μg of trypsin, 37° C., 10 minutes; read-out: 50% inhibitory concentration, substrate TAME
T1 sequence (P00760 24-246): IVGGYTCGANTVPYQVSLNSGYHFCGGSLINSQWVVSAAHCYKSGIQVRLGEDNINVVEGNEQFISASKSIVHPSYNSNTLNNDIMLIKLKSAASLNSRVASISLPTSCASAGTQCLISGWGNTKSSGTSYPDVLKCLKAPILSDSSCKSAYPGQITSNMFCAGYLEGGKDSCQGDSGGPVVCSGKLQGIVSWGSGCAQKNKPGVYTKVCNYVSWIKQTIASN
Description: (§1) The inhibitory activity on trypsin in vitro was determined by the methods of Muramatsu, et al. described in the Journal of Biochemistry, 58, 214 (1965).

trypsin [2] = biological target: T1, trypsin; assay: Inhibition of trypsin hydrolysis of casein, in vitro; type: biochemical; conditions: casein substrate, 20 μg of trypsin, 37° C., 10 minutes; read-out: 50% inhibitory concentration, substrate casein
Description: as §1

Compound | IC50 (trypsin [1]) | IC50 (trypsin [2])
N#Cc1nccc2c(OC(=O)c3ccc(NC(=N)N)cc3)cccc12 [Compound No. 3, 1'-Cyano-5'-isoquinolyl 4-guanidinobenzoate methanesulfonate monohydrate] | 56 nM | 140 nM
CCCCOC(=O)c1nccc2c(OC(=O)c3ccc(NC(=N)N)cc3)cccc12 [Compound No. 10, 1'-Butoxycarbonyl-5'-isoquinolyl 4-guanidinobenzoate hydrochloride monohydrate] | 150 nM | 210 nM
N=C(N)Nc1ccc(C(=O)Oc2cccc3c(O)nccc23)cc1 [Compound No. 2, 1'-Hydroxy-5'-isoquinolyl 4-guanidinobenzoate methanesulfonate] | 64 nM | 140 nM
N=C(N)Nc1ccc(C(=O)Oc2cccc3c(C(=O)OCc4ccccc4)nccc23)cc1 [Compound No. 11, 1'-Benzyloxycarbonyl-5'-isoquinolyl 4-guanidinobenzoate hydrochloride monohydrate] | 340 nM | 410 nM
CCOC(=O)c1ccc(OC(=O)CCCCCNC(=N)N)cc1 [Gabexate mesylate, Ethyl 4-(6-guanidinohexanoyloxy)benzoate methanesulfonate, reference compound] | 15000 nM | 2200 nM
CN(C)C(=O)COC(=O)c1nccc2c(OC(=O)c3ccc(NC(=N)N)cc3)cccc12 [Compound No. 12, 1'-(N,N-Dimethylcarbamoyl)methoxycarbonyl-5'-isoquinolyl 4-guanidinobenzoate hydrochloride] | 66 nM | 140 nM
N=C(N)Nc1ccc(C(=O)Oc2cccc3cnccc23)cc1 [Compound No. 1, 5-Isoquinolyl 4-guanidinobenzoate dimethanesulfonate monohydrate] | 56 nM | 130 nM
CN(C)C(=O)COC(=O)Cc1ccc(OC(=O)c2ccc(NC(=N)N)cc2)cc1 [Camostat mesylate, N,N-Dimethylcarbamoylmethyl -p-( -p-guanidinobenzoyloxy)phenylacetate methanesulfonate, reference compound] | 65 nM | 140 nM

Now from value to compound:

IC50 (trypsin [1]) | IC50 (trypsin [2]) | Compound
56 nM | 160 nM | N=C(N)Nc1ccc(C(=O)Oc2cccc3c(C(N)=O)nccc23)cc1 [Compound No. 6, 1'-Carbamoyl-5'-isoquinolyl 4-guanidinobenzoate methanesulfonate hemihydrate]
56 nM | 120 nM | CCOC(=O)c1nccc2c(OC(=O)c3ccc(NC(=N)N)cc3)cccc12 [Compound No. 7, 1'-Ethoxycarbonyl-5'-isoquinolyl 4-guanidinobenzoate hydrochloride]
96 nM | 160 nM | CCCOC(=O)c1nccc2c(OC(=O)c3ccc(NC(=N)N)cc3)cccc12 [Compound No. 8, 1'-Propoxycarbonyl-5'-isoquinolyl 4-guanidinobenzoate methanesulfonate]
57 nM | 140 nM | CC(=O)c1nccc2c(OC(=O)c3ccc(NC(=N)N)cc3)cccc12 [Compound No. 4, 1'-Acetyl-5'-isoquinolyl 4-guanidinobenzoate hydrochloride]
64 nM | 170 nM | N=C(N)Nc1ccc(C(=O)Oc2cccc3c(C(=O)O)nccc23)cc1 [Compound No. 5, 1'-Carboxy-5'-isoquinolyl 4-guanidinobenzoate quarterhydrate]
130 nM | 160 nM | CC(C)OC(=O)c1nccc2c(OC(=O)c3ccc(NC(=N)N)cc3)cccc12 [Compound No. 9, 1'-Isopropoxycarbonyl-5'-isoquinolyl 4-guanidinobenzoate hydrochloride]
